In patent US10538532B2, “Hepatitis B antiviral agents” (ENANTA PHARMACEUTICALS, INC., priority 2016, dated 2020):

What follows are compounds tested on HBV (assay: HepAD38 antiviral assay: reduction of viral product accumulation (virion DNA by qPCR, HBsAg or HBeAg by ELISA)). Details: HepAD38 cells, five days after compound addition; concentration reducing viral product accumulation by 50% relative to no drug controls; read-out: HepAD38 EC50.
Assay type: cell-based, hepatitis B virus
Method in brief: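 EC50 values represent 50% reduction of viral product accumulation in lysates or supernatants relative to untreated controls, with virion DNA read by qPCR and HBsAg/HBeAg by ELISA. Measurements followed 5 days of treatment, or 8 days with compound renewed on d2 and d5. Cells were tetracycline-depleted HepAD38 at 35,000/well, dosed with a 1:200 dilution of DMSO stocks.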

| SMILES | EC50 |
| --- | --- |
| O=C(Nc1cc(F)c(F)c(F)c1)c1ccc(Cl)c(S(=O)(=O)C2CC3O[C@H]3C2)c1 (stereo partly shown) [Example 87] | 100 to 400 nM |

Same assay, conditions: Hepatitis B virus, HePAD38, 120 h, HepAD38 cells, five days after compound addition; concentration reducing viral product accumulation by 50% relative to no drug controls; read-out: HepAD38 EC50

| SMILES | EC50 |
| --- | --- |
| [N-]=[N+]=Nc1ccc(C(=O)Nc2cc(F)c(F)c(F)c2)cc1S(=O)(=O)[C@H]1C2CC[C@H]1C[C@](O)(CO)C2 [Example 148] | > 400 nM |
| CC1(C)OC[C@@]2(CC3CC[C@@H](C2)[C@H]3S(=O)(=O)c2cc(C(=O)Nc3ccc(F)c(F)c3)ccc2Cl)O1 [Example 126] | 100 to 400 nM |
| O=C(Nc1cc(F)c(F)c(F)c1)c1ccc(Cl)c(S(=O)(=O)CC2CCCCC2)c1 [Example 36] | > 400 nM |
| CC(C)(O)[C@]1(O)CC2CC[C@@H](C1)[C@H]2S(=O)(=O)c1cc(C(=O)Nc2cc(F)c(F)c(F)c2)ccc1Cl [Example 151] | < 100 nM |
| CC(CO)NCCOC[C@]1(O)CC2CC[C@@H](C1)[C@H]2S(=O)(=O)c1cc(C(=O)Nc2cc(F)c(F)c(F)c2)ccc1Cl (stereo partly shown) [Example 358] | 100 to 400 nM |
| O=C(Nc1cccnc1)N[C@@H]1C2CC[C@H]1C[C@H](S(=O)(=O)c1cc(C(=O)Nc3cc(F)c(F)c(F)c3)ccc1Cl)C2 [Example 198] | < 100 nM |
| O=C(Nc1cc(F)c(F)c(F)c1)c1ccc(Cl)c(S(=O)(=O)[C@H]2C3C[C@@H]4C[C@H](C3)C[C@@H]2C4)c1 [Example 176] | > 400 nM |
| O=C(Nc1cc(F)c(F)c(F)c1)c1ccc(Cl)c(S(=O)(=O)[C@H]2C3CC[C@H]2C[C@@]2(CO2)C3)c1 [Example 269] | < 100 nM |
| CS(=O)(=O)OC[C@]1(O)CC2CC[C@@H](C1)[C@H]2S(=O)(=O)c1cc(C(=O)Nc2cc(F)c(F)c(F)c2)ccc1Cl [Example 142] | < 100 nM |
| CCNC(=O)OC[C@]1(O)CC2CC[C@@H](C1)[C@H]2S(=O)(=O)c1cc(C(=O)Nc2cc(F)c(F)c(F)c2)ccc1Cl [Example 135] | 100 to 400 nM |
| COc1ccccc1CO/N=C/[C@]1(O)CC2CC[C@@H](C1)[C@H]2S(=O)(=O)c1cc(C(=O)Nc2cc(F)c(F)c(F)c2)ccc1Cl [Example 238] | 100 to 400 nM |
| O=C(Nc1cc(F)c(F)c(F)c1)c1ccc(Cl)c(S(=O)(=O)[C@H]2C3CC[C@H]2C[C@](O)(COCc2ccncc2)C3)c1 [Example 316] | 100 to 400 nM |
| O=C(Nc1cc(F)c(F)c(F)c1)c1ccc(Cl)c(S(=O)(=O)C2C[C@@H](O)[C@@H](O)C2)c1 (stereo partly shown) [Example 85] | 100 to 400 nM |
| CC([C@H]1C[C@@H](O)C1)S(=O)(=O)c1cc(C(=O)Nc2cc(F)c(F)c(F)c2)ccc1Cl (stereo partly shown) [Example 117] | 100 to 400 nM |
| COC(=O)NC[C@@H]1CC2CC[C@@H](C1)[C@H]2S(=O)(=O)c1cc(C(=O)Nc2cc(F)c(F)c(F)c2)ccc1Cl [Example 334] | < 100 nM |
| O=C(Nc1cc(F)c(F)c(F)c1)c1ccc(Cl)c(S(=O)(=O)C[C@H]2C[C@@H](O)C2)c1 [Example 105] | 100 to 400 nM |
| O=C(Nc1cc(F)c(F)c(F)c1)c1ccc(Cl)c(S(=O)(=O)[C@H]2CC3CCC(C2)[C@]3(O)CN2CCOCC2)c1 [Example 336] | < 100 nM |
| O=C(Nc1cc(F)c(F)c(F)c1)c1ccc(Cl)c(S(=O)(=O)[C@H]2C3CC[C@H]2C[C@](O)(/C=N/O)C3)c1 [Example 158] | < 100 nM |
| COC(=O)N(C)C[C@@H]1CC2CC[C@@H](C1)[C@H]2S(=O)(=O)c1cc(C(=O)Nc2cc(F)c(F)c(F)c2)ccc1Cl [Example 335] | < 100 nM |
| C[C@H](NC(=O)OC(C)(C)C)C(=O)NC[C@]1(O)C2CCC1C[C@@H](S(=O)(=O)c1cc(C(=O)Nc3cc(F)c(F)c(F)c3)ccc1Cl)C2 [Example 349] | < 100 nM |
| O=C(Nc1cc(F)c(F)c(F)c1)c1ccc(Cl)c(S(=O)(=O)[C@H]2C3CC[C@H]2C[C@](O)(Cn2ccnc2)C3)c1 [Example 314] | < 100 nM |
| O=C(Nc1ccc(F)cc1)c1ccc(Cl)c(S(=O)(=O)[C@H]2CC[C@H](O)CC2)c1 [Example 66] | > 400 nM |
| O=C(Nc1cc(F)c(F)c(F)c1)c1ccc(Cl)c(S(=O)(=O)c2ccccc2)c1 [Example 82] | > 400 nM |

| SMILES | EC50 |
| --- | --- |
| O=C(Nc1cc(F)c(F)c(F)c1)c1ccc(Cl)c([S+]([O-])[C@H]2C3C[C@@H]4C[C@H](C3)C[C@@H]2C4)c1 (stereo partly shown) [Example 175] | > 400 nM |
| O=C(Nc1cc(F)c(F)c(F)c1)c1ccc(Cl)c(S(=O)(=O)[C@H]2C3CC[C@H]2C[C@](O)(C#Cc2ccccn2)C3)c1 [Example 171] | < 100 nM |
| O=C1CCCC(S(=O)(=O)c2cc(C(=O)Nc3cc(F)c(F)c(F)c3)ccc2Cl)C1 (stereo not shown) [Example 29] | > 400 nM |
| C[C@]1(O)C(=O)O[C@H](CSc2cc(C(=O)Nc3cc(F)c(F)c(F)c3)ccc2Cl)[C@H]1O [Example 97] | > 400 nM |
| O=C(Nc1cc(F)c(F)c(F)c1)c1ccc(Cl)c(S(=O)(=O)[C@H]2C3CC[C@H]2C[C@](O)(COCC2CO2)C3)c1 (stereo partly shown) [Example 328] | < 100 nM |
| CC(C)[C@H](NC(=O)OC(C)(C)C)C(=O)OC[C@]1(O)CC2CC[C@@H](C1)[C@H]2S(=O)(=O)c1cc(C(=O)Nc2cc(F)c(F)c(F)c2)ccc1Cl [Example 265] | 100 to 400 nM |
| O=C(Nc1cc(F)c(F)c(F)c1)c1ccc(Cl)c(S[C@H]2CC3CCC(C2)[C@H]3O)c1 [Example 191] | > 400 nM |
| CN(C)c1ccc(C(=O)Nc2cc(F)c(F)c(F)c2)cc1S(=O)(=O)[C@H]1C2CC[C@H]1C[C@]1(CO1)C2 [Example 143] | > 400 nM |
| O=C(Nc1cc(F)c(F)c(F)c1)c1ccc(Cl)c(S[C@@H]2C[C@H](O)C[C@H](O)C2)c1 [Example 78] | > 400 nM |
| CC1(C)O[C@@H]2[C@@H](CSc3cc(C(=O)Nc4cc(F)c(F)c(F)c4)ccc3Cl)OC(=O)[C@]2(C)O1 [Example 90] | > 400 nM |
| O=C(Nc1cc(F)c(F)c(F)c1)c1ccc(Cl)c(S(=O)(=O)[C@H]2CC[C@H](CO)CC2)c1 [Example 115] | 100 to 400 nM |
| O=C(Nc1ccc(F)c(F)c1)c1ccc(Cl)c(S(=O)(=O)[C@H]2C3CC[C@H]2C[C@](O)(CO)C3)c1 [Example 127] | < 100 nM |
| N[C@@H](Cc1ccccc1)C(=O)NC[C@]1(O)C2CCC1C[C@@H](S(=O)(=O)c1cc(C(=O)Nc3cc(F)c(F)c(F)c3)ccc1Cl)C2 [Example 366] | 100 to 400 nM |
| CN(C)c1ccc(C(=O)Nc2cc(F)c(F)c(F)c2)cc1S(=O)(=O)[C@H]1C2CC[C@H]1C[C@](O)(CO)C2 [Example 147] | > 400 nM |
| O=C(Nc1cc(F)c(F)c(F)c1)c1ccc(Cl)c([S+]([O-])[C@H]2C3CC[C@H]2C[C@](O)(CO)C3)c1 (stereo partly shown) [Example 138] | > 400 nM |
| NC(=O)O[C@]1(c2cccnc2)C2CCC1C[C@H](S(=O)(=O)c1cc(C(=O)Nc3cc(F)c(F)c(F)c3)ccc1Cl)C2 [Example 353] | < 100 nM |
| O=C(Nc1cc(F)c(F)c(F)c1)c1ccc(Cl)c(S(=O)(=O)C[C@H]2OC(=O)[C@H](O)[C@@H]2O)c1 [Example 101] | > 400 nM |
| O=C(Nc1cc(F)c(F)c(F)c1)c1ccc(Cl)c(S(=O)(=O)[C@H]2C3CC[C@H]2C[C@](O)(COCC(O)CO)C3)c1 (stereo partly shown) [Example 327] | 100 to 400 nM |
| N#Cc1cc(NC(=O)c2ccc(Cl)c(S(=O)(=O)[C@H]3CC[C@H](O)CC3)c2)ccc1F [Example 41] | > 400 nM |
| CC1(C)O[C@@H]2[C@@H](CS(=O)(=O)c3cc(C(=O)Nc4cc(F)c(F)c(F)c4)ccc3Cl)OC(=O)[C@@H]2O1 [Example 100] | > 400 nM |
| O=C(Nc1cc(F)c(F)c(F)c1)c1ccc(Cl)c(S(=O)(=O)[C@H]2CC3CCC(C2)[C@@H]3N2CCOCC2)c1 [Example 359] | < 100 nM |
| O=C(Nc1cc(F)c(F)c(F)c1)c1ccc(Cl)c(S(=O)(=O)[C@H]2C3CC[C@H]2C[C@](O)(C#Cc2ccccc2)C3)c1 [Example 167] | 100 to 400 nM |
